Data published in PMC6943664 (Molecules, 2019).
Where two headings read alike, the source gives them in different places.

How the values were obtained:
[1] = set-up: method as in PMID 19810674; conditions: cited from earlier work
[2] = target: T1, butyrylcholinesterase from equine serum (Equus caballus, UniProt P81908); experiment: biochemical; assay type: biochemical; conditions: for inhibition at 10 µM: read-out: BChE % inhibition at 10 μM
T1 construct: butyrylcholinesterase from equine serum; purchased Sigma Aldrich, Milan, Italy; host or cells: equine serum
Procedure: (§1) In vitro enzymatic screening toward ChEs was carried out according to the known Ellman’s protocol, by using eeAChE and esBChE as highly homologous and cheaper surrogates for human enzymes. The enzyme inhibition assays on human MAOs were performed by applying already reported methods.
(§2) All enzymes and reagents were purchased from Sigma Aldrich, Milan, Italy. Inhibition of human recombinant MAO A and B was assayed by monitoring the fluorescence of 4-hydroxyquinoline produced from the oxidation of substrate kynuramine, following a previously published method. Acetylcholinesterase from electric eel and butyrylcholinesterase from equine serum were used in the Ellman’s spectrophotometric method as already described. In all cases, a 96-well plate procedure was used with an Infinite M1000 Pro plate reader (Tecan, Cernusco sul Naviglio, Italy). Inhibition values were determined as IC50 values by statistical analysis using Prism (GraphPad Prism version 5.00 for Windows, GraphPad Software, San Diego, CA, USA).

[3] = target: T2, Acetylcholinesterase from electric eel (Electrophorus electricus, UniProt O42275); experiment: biochemical; assay type: biochemical; conditions: AChE from electric eel; mean ±SEM of three
T2 construct: purchased Sigma Aldrich, Milan, Italy
Procedure: as §1, §2

CYP450s = tested on: CYP450s; set-up: method as in PMID 19810674; conditions: cited from earlier work
human recombinant MAO A = target: T3, human recombinant MAO A (Homo sapiens, UniProt P21397); experiment: biochemical
T3 construct: purchased Sigma Aldrich, Milan, Italy
T3 sequence (P21397 1-527): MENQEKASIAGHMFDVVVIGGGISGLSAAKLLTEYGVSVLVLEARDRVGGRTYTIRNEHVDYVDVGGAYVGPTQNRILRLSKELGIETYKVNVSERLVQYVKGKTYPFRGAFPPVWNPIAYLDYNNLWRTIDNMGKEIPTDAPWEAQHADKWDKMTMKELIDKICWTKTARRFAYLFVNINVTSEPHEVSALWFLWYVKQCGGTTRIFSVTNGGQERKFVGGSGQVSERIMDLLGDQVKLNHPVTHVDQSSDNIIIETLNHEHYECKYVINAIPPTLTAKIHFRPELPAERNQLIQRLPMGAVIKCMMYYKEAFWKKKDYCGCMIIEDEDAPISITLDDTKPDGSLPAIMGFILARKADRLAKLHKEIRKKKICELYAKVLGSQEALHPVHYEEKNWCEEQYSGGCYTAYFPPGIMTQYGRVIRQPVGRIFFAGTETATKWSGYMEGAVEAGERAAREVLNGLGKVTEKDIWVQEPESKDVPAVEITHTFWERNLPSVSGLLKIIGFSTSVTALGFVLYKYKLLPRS
Procedure: as §1, §2

rat MAO B = tested on: rat MAO B; set-up: method as in PMID 19810674; conditions: cited from earlier work
human recombinant MAO B = target: T4, human recombinant MAO B (Homo sapiens, UniProt P27338); experiment: Human recombinant MAO B inhibition (kynuramine fluorescence); assay type: biochemical; conditions: for IC50: mean ±SEM of three independent experiments
T4 construct: purchased Sigma Aldrich, Milan, Italy
T4 sequence (P27338 1-520): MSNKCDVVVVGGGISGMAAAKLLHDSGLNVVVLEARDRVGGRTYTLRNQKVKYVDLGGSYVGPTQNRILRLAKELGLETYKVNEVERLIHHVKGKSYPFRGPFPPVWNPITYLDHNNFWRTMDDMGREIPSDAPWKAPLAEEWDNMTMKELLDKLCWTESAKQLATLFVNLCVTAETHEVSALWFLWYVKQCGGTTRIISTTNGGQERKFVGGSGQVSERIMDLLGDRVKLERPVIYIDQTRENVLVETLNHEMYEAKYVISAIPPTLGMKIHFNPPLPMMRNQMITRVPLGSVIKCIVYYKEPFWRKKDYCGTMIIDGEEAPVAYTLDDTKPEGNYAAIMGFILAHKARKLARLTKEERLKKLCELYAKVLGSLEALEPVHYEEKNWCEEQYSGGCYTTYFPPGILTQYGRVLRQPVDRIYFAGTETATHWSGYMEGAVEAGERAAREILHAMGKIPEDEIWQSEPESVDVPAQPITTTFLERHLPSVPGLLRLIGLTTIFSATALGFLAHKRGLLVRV
Procedure: as §1, §2

eeAChE = target: T5, eeAChE (Electrophorus electricus, UniProt O42275); experiment: Inhibition kinetics of eeAChE (Lineweaver-Burk); assay type: biochemical; conditions: for mechanism of inhibition toward eeAChE: Lineweaver–Burk plots; for Ki: eeAChE, inhibitor 0 to 5 μM, acetylthiocholine 33 to 200 μM
T5 construct: purchased Sigma Aldrich, Milan, Italy
Procedure: as §2, with “Enzyme kinetics were used as tool for investigating the inhibition mechanism toward AChE. Compounds 8, bearing a meta-bromobenzyloxy substituent at coumarin C7, and 24, branched with a glycinamide chain as the variation at position 4, were chosen as prototypes bearing different head-or-tail modification schemes. […]. All” for “All”, “USA). […]” for “USA).”

[4] = human recombinant MAO, mean ±SEM of three independent experiments, read-out: MAO A IC50
[5] = human recombinant MAO, read-out: MAO B IC50

T1 sequence (P81908 whole entry): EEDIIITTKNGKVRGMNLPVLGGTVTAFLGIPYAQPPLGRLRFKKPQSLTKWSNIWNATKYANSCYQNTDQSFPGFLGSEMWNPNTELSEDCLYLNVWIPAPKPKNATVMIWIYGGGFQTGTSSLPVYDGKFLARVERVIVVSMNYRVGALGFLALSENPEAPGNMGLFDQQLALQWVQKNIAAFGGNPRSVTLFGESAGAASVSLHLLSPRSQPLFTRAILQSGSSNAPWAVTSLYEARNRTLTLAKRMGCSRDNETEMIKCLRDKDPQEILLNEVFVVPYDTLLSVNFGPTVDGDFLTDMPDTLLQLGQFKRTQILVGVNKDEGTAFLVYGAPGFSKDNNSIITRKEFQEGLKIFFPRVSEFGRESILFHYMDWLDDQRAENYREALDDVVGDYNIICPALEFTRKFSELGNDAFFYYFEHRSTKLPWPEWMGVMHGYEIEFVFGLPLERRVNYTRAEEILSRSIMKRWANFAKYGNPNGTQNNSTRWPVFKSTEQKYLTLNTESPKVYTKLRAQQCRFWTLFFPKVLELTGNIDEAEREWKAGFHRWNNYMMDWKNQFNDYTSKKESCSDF
T5 sequence (O42275 24-633): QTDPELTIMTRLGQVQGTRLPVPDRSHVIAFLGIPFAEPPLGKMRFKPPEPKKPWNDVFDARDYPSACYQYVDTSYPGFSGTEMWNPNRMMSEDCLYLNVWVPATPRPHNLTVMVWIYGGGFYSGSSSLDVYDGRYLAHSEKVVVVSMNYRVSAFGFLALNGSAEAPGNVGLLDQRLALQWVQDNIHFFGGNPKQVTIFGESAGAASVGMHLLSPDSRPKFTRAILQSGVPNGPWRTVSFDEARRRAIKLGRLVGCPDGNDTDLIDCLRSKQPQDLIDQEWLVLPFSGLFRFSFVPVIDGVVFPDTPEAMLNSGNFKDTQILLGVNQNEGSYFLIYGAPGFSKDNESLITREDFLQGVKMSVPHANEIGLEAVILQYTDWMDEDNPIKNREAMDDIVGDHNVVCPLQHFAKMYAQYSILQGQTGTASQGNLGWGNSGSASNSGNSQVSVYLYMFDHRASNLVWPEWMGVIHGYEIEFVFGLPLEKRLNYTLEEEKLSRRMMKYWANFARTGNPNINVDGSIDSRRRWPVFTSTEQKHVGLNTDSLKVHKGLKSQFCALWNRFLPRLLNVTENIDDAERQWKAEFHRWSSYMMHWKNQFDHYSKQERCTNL
T2 sequence (O42275 24-633): as above

SMILES | blood–brain barrier penetration [1] | inhibition at 10 µM [2] [%] | IC50 [3] [µM] | CYP450s liability (CYP450s) | IC50 (human recombinant MAO A) [µM] | SI, IC50 MAO A/IC50 MAO B (rat MAO B; rat MAOs) | IC50 (rat MAO B; rat enzyme) [µM] | IC50 (human recombinant MAO B; MAO B IC50, human recombinant MAO) [µM] | SI (MAO A/MAO B selectivity) (human recombinant MAO B; human MAOs) | mechanism of inhibition toward eeAChE (eeAChE) | Ki (eeAChE) [µM] | IC50 (human recombinant MAO A; [4]) [µM] | IC50 (human recombinant MAO B; [5]) [µM] | IC50 ([2]; BChE from equine serum, mean ±SEM of three) [µM]
CNCc1cc(=O)oc2cc(OCc3cccc(Cl)c3)ccc12 [compound 3, 7-[(3-chlorobenzyl)oxy]-4-[(methylamino)methyl]-2H-chromen-2-one] | rapid | 43 ± 5 | 6.2 ± 0.7 | poor | 0.65 ± 0.02 | 457 | 0.013 | 0.0039 ± 0.0008 | 167 | – | – | – | – | –
NC(=O)CNCc1cc(=O)oc2cc(OCc3cccc(Cl)c3)ccc12 [compound 24, N^2-({7-[(3-chlorobenzyl)oxy]-2-oxo-2H-chromen-4-yl}methyl)glycinamide] | – | 13 ± 2 | 2.2 ± 0.7 | – | – | – | – | – | – | mixed-type | 3.63 | 0.077 ± 0.014 | 0.061 ± 0.013 | –
CNCc1cc(=O)oc2cc(OCc3cccc(Br)c3)ccc12 [compound 8, 7-[(3-bromobenzyl)oxy]-4-[(methylamino)methyl]-2H-chromen-2-one] | – | – | 2 ± 0.04 | – | – | – | – | – | – | mixed-type | 2.91 | 2.31 ± 0.04 | 0.0022 ± 0.0001 | 2.9 ± 0.4
